Experimental findings from article PMC4821856, “Novel Anti-Campylobacter Compounds Identified Using High Throughput Screening of a Pre-selected Enriched Small Molecules Library” (Frontiers in Microbiology, 2016) are described below.

The test has as its system C. jejuni 81-176 in Caco-2 cells. Put plainly: Intracellular survival / in vitro clearance of C. jejuni in infected Caco-2 cells. It counts as cell-based, Campylobacter jejuni. The following applies: for minimal effective concentration: Campylobacter jejuni, C. jejuni 81–176 infected Caco-2 cells, compounds at 200, 100, 50, 25 μM for 24 h, read-out: In vitro Concentration (in vitro clearance ability); for Intracellular Campylobacter load (below detection limit): 50 μM, 24 h. Here is the method:
To test the effect of selected compounds on C. jejuni in vitro clearance, Caco-2 cells were infected with C. jejuni 81-176 strain and a 96 well intracellular survival assay was performed as described previously (Malde et al., [2014]; Pina-Mimbela et al., [2015]). Briefly, a mid-log phase C. jejuni 81–176 culture was pelleted by centrifuging at 9500 × g for 10 min and washed three times with Dulbecco Phosphate Buffer Saline (DPBS, Gibco) containing 1% (v/v) FBS and adjusted to the desired OD600. Approximately 1.4 × 10^5 Caco-2 cells/well were seeded in 100 μL of media containing varying concentration of compounds into each well of a 96 well plate and subsequently infected with C. jejuni at multiplicity of infection (MOI) 100 in duplicate wells. To determine clearance, Caco-2 cells were incubated with bacteria for 3 h and treated with gentamicin (150 μg/mL) and incubated for additional 2 h. Cells were washed three times with DPBS with no calcium or magnesium and incubated with 1 μL of diluted compounds (200, 100, 50, and 25 μM) for 24 h. Infected cells were washed twice with MEM, lysed with 0.1% (v/v) Triton-X 100. Subsequently, 100 μL of an aliquot from each well was 10-fold serially diluted in MEM and plated on MH agar in duplicate to determine CFUs. The appropriate controls included; (i) infected Caco-2 cell treated with kanamycin or chloramphenicol, (ii) infected Caco-2 cells treated with 1 μL of 100% Trition-X, (iii) infected Caco-2 treated with 1 μL of 100% DMSO. Two independent experiments were carried with duplicate treatments in each experiment and the average CFU value was used to plot the graph.
The in vitro clearance ability and cytotoxicity of compounds were analyzed using one-way analysis of variance with mean separation by a least significant difference test at 5% level of significance in GraphPad Prism version 6 software.

For the compound `O=S(=O)(Nc1cccc(C(F)(F)F)c1)c1ccc(Br)cc1` [Comp 1], the minimal effective concentration was determined as 200 µM.
For `Clc1ccc(N2CCN(Cc3ccsc3)CC2)cc1` [Comp 4], the minimal effective concentration was more than 200 µM.
`Cc1ccc(N2CCN(C/C=C/c3ccccc3)CC2)cc1` [Comp 5]: the minimal effective concentration is more than 200 µM.
Take `O=c1c(Cl)c(Cl)cnn1-c1ccccc1Cl` [Comp 7]: the “Intracellular Campylobacter load (below detection limit)” value is given as not above 10 bacteria/mL and the minimal effective concentration was found to be 25 µM. The “Intracellular Campylobacter clearing ability” value (25 μM (eight-fold dilution)) is “complete intracellular Campylobacter clearing ability”.
On to `Cc1c(C(C)NCc2cccc(OC3CCCC3)c2)cnn1-c1ccccc1` (centres unmarked) [Comp 10], for which the “Intracellular Campylobacter load (below detection limit)” value is not above 10 bacteria/mL and the minimal effective concentration is 50 µM.
Turning to `COc1ccc(CNCc2ccc(Cl)s2)cc1OCC(O)CN1CCCC1` (centres unmarked) [Comp 12], the minimal effective concentration worked out at 100 µM.
On to `CN(Cc1cccc2cnccc12)CC1CCCN(CCc2ccc(F)cc2)C1` (centres unmarked) [Comp 13], for which the minimal effective concentration is more than 200 µM. Moreover, where the note is “infected Caco-2 cells, overall”, the “Intracellular C. jejuni clearance (in vitro effect)” value is listed as “lacked in vitro effect”.
In the case of `CN(CC(O)COc1ccccc1CNC1(c2ccccc2)CC1)C1CCCCC1` (centres unmarked) [Comp 17], the minimal effective concentration is more than 200 µM.
Take `CN(Cc1ccccc1)CC1CCCN(CCc2ccc(F)cc2)C1` (centres unmarked) [Comp 18]: the minimal effective concentration is 100 µM.
On the same count and under the same terms, with `CC(=O)Nc1ccc(CN(C)CC2CCCN(CCc3cccc(C(F)(F)F)c3)C2)cc1` (centres unmarked) [Comp 22] the figure was 100 µM.
